Data from US9018208B2, “Heterocycles as potassium channel modulators” (Icagen Inc., priority 2007, dated 2015).
pEC50: −log10 of the molar value.

Test system: SH-SY5Y M-currents (KCNQ2, KCNQ3 and KCNQ5)
Assay: SH-SY5Y native cell line FLIPR assay (voltage-sensitive dye DiBAC)
Assay type: cell-based, mouse neuroblastoma, rat glioma hybrid cell line
Conditions: FLIPR assay, SH-SY5Y native cell line; Table 1; read-out: SH-SY5Y EC50
In short: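 Response is peak DiBAC fluorescence change, normalised to the maximum from a positive control agent, sampled every 30 s over 25 min. Before compound addition, SH-SY5Y cells differentiated with PGE1 plus isomethylbutylxanthine were dye-loaded for 1 h in EBSS with […] DiBAC.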

Structure (SMILES)	pEC50
CC(C)(C)Cc1c(NC(=O)CC2CCCC2)nc2ccc(C(F)(F)F)cn12 [Compound 72, 2-cyclopentyl-N-(3-neopentyl-6-(trifluoromethyl)imidazo[1,2-a]pyridin-2-yl)acetamide]	> 6.30
O=C(Cc1ccc(F)cc1)Nc1nc2ccc(F)cn2c1Cc1ccc(F)cc1 [Compound 18, N-(6-fluoro-3-(4-fluorobenzyl)imidazo[1,2-a]pyridin-2-yl)-2-(4-fluorophenyl)acetamide]	> 6.30

The next lines start with the values.

pEC50	Structure (SMILES)
5.52 to 6.30	Cc1ccc2nc(NC(=O)C3CCC(F)(F)CC3)c(C3CC3)n2n1 [Compound 78, N-(3-cyclopropyl-6-methylimidazo[1,2-b]pyridazin-2-yl)-4,4-difluorocyclohexanecarboxamide]
> 6.30	O=C(Nc1nc2ccc(C(F)(F)F)cn2c1CC1CCCCC1)C1CCCC1 [Compound 52, N-(3-(cyclohexylmethyl)-6-(trifluoromethyl)imidazo[1,2-a]pyridin-2-yl)cyclopentanecarboxamide]
5.00 to 5.52	Cc1cccc2nc(NC(=O)CC(C)(C)C)c(C3CC3)n12 [Compound 81, N-(3-cyclopropyl-5-methylimidazo[1,2-a]pyridin-2-yl)-3,3-dimethylbutanamide]
> 6.30	CC(C)(C)Cc1c(NC(=O)Cc2cccc(Cl)c2)nc2ccc(C(F)(F)F)cn12 [Compound 35, 2-(3-chlorophenyl)-N-(3-neopentyl-6-(trifluoromethyl)imidazo[1,2-a]pyridin-2-yl)acetamide]
> 6.30	O=C(Cc1cccc(Cl)c1)Nc1nc2ccc(C(F)(F)F)cn2c1C1CCCCC1 [Compound 44, 2-(3-chlorophenyl)-N-(3-cyclohexyl-6-(trifluoromethyl)imidazo[1,2-a]pyridin-2-yl)acetamide]

Same assay, conditions: FLIPR assay, SH-SY5Y native cell line; Table 2; read-out: SH-SY5Y EC50

Structure (SMILES)	pEC50
CC(=O)OCC(C)(C)CC(=O)Nc1nc2ccc(F)cn2c1-c1ccc(C(F)(F)F)cc1 [Compound 189, 4-(6-fluoro-3-(4-(trifluoromethyl)phenyl)imidazo[1,2-a]pyridin-2-ylamino)-2,2-dimethyl-4-oxobutyl acetate]	5.00 to 5.52
CC(C)(C)CC(=O)Nc1nc2ncccn2c1-c1cccc(OC(F)(F)F)c1 [Compound 323, 3,3-dimethyl-N-(3-(3-(trifluoromethoxy)phenyl)imidazo[1,2-a]pyrimidin-2-yl)butanamide]	5.00 to 5.52
O=C(Cc1ccccc1)Nc1nc2ccc(F)cn2c1-c1ccc(C(F)(F)F)cc1 [Compound 127, N-(6-fluoro-3-(4-(trifluoromethyl)phenyl)imidazo[1,2-a]pyridin-2-yl)-2-phenylacetamide]	> 6.30
O=C(Cc1ccc(F)cc1)Nc1nc2ncc(Cl)cn2c1-c1cccc(Cl)c1 [Compound 320, N-(6-chloro-3-(3-chlorophenyl)imidazo[1,2-a]pyrimidin-2-yl)-2-(4-fluorophenyl) acetamide]	5.00 to 5.52
O=C(Cc1ccccc1)Nc1nc2ccc(F)cn2c1-c1ccc(OC(F)(F)F)c(F)c1 [Compound 295, N-(6-fluoro-3-(3-fluoro-4-(trifluoromethoxy)phenyl)imidazo[1,2-a]pyridin-2-yl)-2-phenylacetamide]	> 6.30
O=C(Cc1ccc(F)cc1)Nc1nc2ccc(F)cn2c1-c1ccc(OC(F)(F)F)cc1 [Compound 154, N-(6-fluoro-3-(4-(trifluoromethoxy)phenyl)imidazo[1,2-a]pyridin-2-yl)-2-(4-fluorophenyl)acetamide]	> 6.30
O=C(CC1CCCC1)Nc1nc2ccc(F)cn2c1-c1ccc(F)cc1 [Compound 107, 2-cyclopentyl-N-(6-fluoro-3-(4-fluorophenyl)imidazo[1,2-a]pyridin-2-yl)acetamide]	> 6.30
O=C(CC1CCCC1)Nc1nc2cc(C(F)(F)F)ccn2c1-c1ccccc1 [Compound 98, 2-cyclopentyl-N-(3-phenyl-7-(trifluoromethyl)imidazo[1,2-a]pyridin-2-yl)acetamide]	5.52 to 6.30
CC(C)(C)C(F)(F)C(=O)Nc1nc2ccc(F)cn2c1-c1ccc(C(F)(F)F)cc1 [Compound 202, 2,2-difluoro-N-(6-fluoro-3-(4-(trifluoromethyl)phenyl)imidazo[1,2-a]pyridin-2-yl)-3,3-dimethylbutanamide]	> 6.30
O=C(CC1CCC1)Nc1nc2ccc(F)cn2c1-c1cccc(C(F)(F)F)c1 [Compound 270, 2-cyclobutyl-N-(6-fluoro-3-(3-(trifluoromethyl)phenyl)imidazo[1,2-a]pyridin-2-yl)acetamide]	> 6.30
O=C(Cc1ccccc1)Nc1nc2ccc(F)cn2c1-c1ccc(OC(F)(F)F)cc1 [Compound 207, N-(6-fluoro-3-(4-(trifluoromethoxy)phenyl)imidazo[1,2-a]pyridin-2-yl)-2-phenylacetamide]	> 6.30

Continued, values first:

pEC50	Structure (SMILES)
5.52 to 6.30	CC(C)(C)CC(=O)Nc1nc2ccc(C#N)cn2c1-c1ccc(F)cc1 [Compound 159, N-(6-cyano-3-(4-fluorophenyl)imidazo[1,2-a]pyridin-2-yl)-3,3-dimethylbutanamide]
5.00 to 5.52	CC(Oc1ccccc1)C(=O)Nc1nc2ccc(F)cn2c1-c1ccc(OC(F)(F)F)cc1 (stereo not shown) [Compound 232, N-(6-fluoro-3-(4-(trifluoromethoxy)phenyl)imidazo[1,2-a]pyridin-2-yl)-2-phenoxypropanamide]
5.52 to 6.30	CC(C)(C)NC(=O)Nc1nc2ccc(F)cn2c1-c1ccc(C(F)(F)F)cc1 [Compound 215, 1-tert-butyl-3-(6-fluoro-3-(4-(trifluoromethyl)phenyl)imidazo[1,2-a]pyridin-2-yl)urea]
5.52 to 6.30	CC(CC(=O)Nc1nc2ccc(F)cn2c1-c1cccc(Cl)c1)C(F)(F)F (stereo not shown) [Compound 315, N-(3-(3-chlorophenyl)-6-fluoroimidazo[1,2-a]pyridin-2-yl)-4,4,4-trifluoro-3-methylbutanamide]
5.52 to 6.30	O=C(CC(F)(F)F)Nc1nc2ccc(F)cn2c1-c1cccc(OC(F)(F)F)c1 [Compound 263, 3,3,3-trifluoro-N-(6-fluoro-3-(3-(trifluoromethoxy)phenyl)imidazo[1,2-a]pyridin-2-yl)propanamide]
> 6.30	CC(C)(C)CC(=O)Nc1nc2ccc(F)cn2c1-c1ccc(C(F)(F)F)c(F)c1 [Compound 199, N-(6-fluoro-3-(3-fluoro-4-(trifluoromethyl)phenyl)imidazo[1,2-a]pyridin-2-yl)-3,3-dimethylbutanamide]
5.00 to 5.52	O=C(Nc1nc2ccc(F)cn2c1-c1ccccc1)C(F)(F)F [Compound 91, 2,2,2-trifluoro-N-(6-fluoro-3-phenylimidazo[1,2-a]pyridin-2-yl)acetamide]
> 6.30	O=C(Cc1ccc(C(F)(F)F)cc1)Nc1nc2ccc(F)cn2c1-c1ccc(OC(F)(F)F)c(F)c1 [Compound 297, N-(6-fluoro-3-(3-fluoro-4-(trifluoromethoxy)phenyl)imidazo[1,2-a]pyridin-2-yl)-2-(4-(trifluoromethyl)phenyl)acetamide]

Same assay, conditions: FLIPR assay, SH-SY5Y native cell line; Table 5; read-out: SH-SY5Y EC50

pEC50	Structure (SMILES)
5.52 to 6.30	C=Cc1c(NC(=O)Cc2ccc(F)cc2)nc2ccc(F)cn12 [Compound 425, N-(6-fluoro-3-vinylimidazo[1,2-a]pyridin-2-yl)-2-(4-fluorophenyl)acetamide]

Same assay, conditions: SH-SY5Y native cell line, FLIPR assay (Table 3); read-out: SH-SY5Y EC50

Structure (SMILES)	pEC50
CC(C)n1cc(-c2c(NC(=O)CC(C)(C)C)nc3ccc(F)cn23)cn1 [Compound 370, N-(6-fluoro-3-(1-isopropyl-1H-pyrazol-4-yl)imidazo[1,2-a]pyridin-2-yl)-3,3-dimethylbutanamide]	5.00 to 5.52
CC(C)(C)CC(=O)Nc1nc2ccc(F)cn2c1-c1ccc(C#N)cn1 [Compound 354, N-(3-(5-cyanopyridin-2-yl)-6-fluoroimidazo[1,2-a]pyridin-2-yl)-3,3-dimethylbutanamide]	5.00 to 5.52
Cc1ccc2nc(NC(=O)Cc3ccc(F)cc3)c(-c3cc(C(F)(F)F)ccn3)n2n1 [Compound 395, 2-(4-fluorophenyl)-N-(6-methyl-3-(4-(trifluoromethyl)pyridin-2-yl)imidazo[1,2-b]pyridazin-2-yl)acetamide]	5.00 to 5.52
O=C(Cc1ccc(F)cc1)Nc1nc2ccccn2c1-c1nccs1 [Compound 407, 2-(4-fluorophenyl)-N-(3-(thiazol-2-yl)imidazo[1,2-a]pyridin-2-yl)acetamide]	5.52 to 6.30
O=C(Nc1nc2ccccn2c1-c1cc(C(F)(F)F)ccn1)C1CCC(F)(F)CC1 [Compound 411, 4,4-difluoro-N-(3-(4-(trifluoromethyl)pyridin-2-yl)imidazo[1,2-a]pyridin-2-yl)cyclohexanecarboxamide]	> 6.30

Second part, the molecule after the results:

pEC50	Structure (SMILES)
> 6.30	CC1(CC(=O)Nc2nc3ccc(F)cn3c2-c2nc3ccccc3s2)CCCC1 [Compound 375, N-(3-(benzo[d]thiazol-2-yl)-6-fluoroimidazo[1,2-a]pyridin-2-yl)-2-(1-methylcyclopentyl)acetamide]
5.52 to 6.30	Cc1ccc(-c2c(NC(=O)CC(C)(C)C)nc3ccc(F)cn23)nc1 [Compound 359, N-(6-fluoro-3-(5-methylpyridin-2-yl)imidazo[1,2-a]pyridin-2-yl)-3,3-dimethylbutanamide]
5.52 to 6.30	Cc1cccc2nc(NC(=O)Cc3ccc(F)cc3)c(-c3nc4ccccc4s3)n12 [Compound 393, N-(3-(benzo[d]thiazol-2-yl)-5-methylimidazo[1,2-a]pyridin-2-yl)-2-(4-fluorophenyl)acetamide]
5.52 to 6.30	CC(C)(C)CC(=O)Nc1nc2ccc(F)cn2c1-c1cc(Cl)ccn1 [Compound 364, N-(3-(4-chloropyridin-2-yl)-6-fluoroimidazo[1,2-a]pyridin-2-yl)-3,3-dimethylbutanamide]

Same assay, conditions: SH-SY5Y native cell line, FLIPR assay (Table 6); read-out: SH-SY5Y EC50

pEC50	Structure (SMILES)
> 6.30	CC1(CC(=O)Nc2nc3ccc(C(F)(F)F)nn3c2C2CC2)CCCC1 [Compound 445, N-(3-cyclopropyl-6-(trifluoromethyl)imidazo[1,2-b]pyridazin-2-yl)-2-(1-methylcyclopentyl)acetamide]
